Among the data in ChEMBL document CHEMBL4418913, “Modulation of K2P channels” (2018) are Activity, Emax and inhibition values, retold here.

The source made the active and inactive calls. No cut-off for these calls is given here.

The target of experiment [1] is T1, Potassium channel subfamily K member 2 (Homo sapiens) (UniProt O95069).
T1 sequence (whole entry): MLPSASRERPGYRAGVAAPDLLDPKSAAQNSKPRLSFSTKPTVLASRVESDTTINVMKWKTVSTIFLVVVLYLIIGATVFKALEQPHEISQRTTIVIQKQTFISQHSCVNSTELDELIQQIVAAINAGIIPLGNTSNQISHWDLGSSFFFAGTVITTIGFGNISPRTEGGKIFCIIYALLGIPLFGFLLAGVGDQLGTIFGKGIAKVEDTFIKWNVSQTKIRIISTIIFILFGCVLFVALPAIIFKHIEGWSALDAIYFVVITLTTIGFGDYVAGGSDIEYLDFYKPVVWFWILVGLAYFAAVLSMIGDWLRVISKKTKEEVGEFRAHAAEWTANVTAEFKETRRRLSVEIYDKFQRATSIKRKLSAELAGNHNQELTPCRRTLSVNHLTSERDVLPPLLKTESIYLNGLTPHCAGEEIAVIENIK
Nature of the experiment: Activation of K2P2.1 (unknown origin) expressed in Xenopus oocytes assessed as effect on channel currents at 400 uM by two-electrode voltage clamp assay. It is filed as cell-based. (In general: Two-electrode voltage clamp holds a large cell at a set potential and records current.)

Experiment [2] concerns the target T1, Potassium channel subfamily K member 2 (Homo sapiens). Nature of the experiment: Reversible modulatory activity at K2P2.1 (unknown origin) expressed in Xenopus oocytes assessed as effect on channel currents at 100 uM at -80 mV holding potential by two-electrode voltage clamp assay. It is filed as cell-based.
In experiment [3] the target is Potassium voltage-gated channel subfamily KQT member 2 (Homo sapiens) (UniProt O43526). Description: Activation of Kv7.2 (unknown origin) expressed in Xenopus oocytes assessed as effect on channel currents by two-electrode voltage clamp assay. It is filed as cell-based.
The target in experiment [4] is T1, Potassium channel subfamily K member 2 (Homo sapiens). Nature of the experiment: Activation of K2P2.1 (unknown origin) expressed in Xenopus oocytes assessed as effect on channel currents at -80 mV holding potential by two-electrode voltage clamp assay relative to untreated control. It is filed as cell-based.
In experiment [5] the test system is Potassium channel subfamily K member 2 (Homo sapiens), O95069 [UNDEFINED MUTATION]. Nature of the experiment: Activation of K2P2.1 G137I mutant (unknown origin) expressed in Xenopus oocytes assessed as effect on channel currents at 50 uM by two-electrode voltage clamp assay. It is filed as cell-based.
The target in experiment [6] is T1, Potassium channel subfamily K member 2 (Homo sapiens). Nature of the experiment: Reversible activation of K2P2.1 (unknown origin) expressed in HEK293T cells assessed as effect on channel currents at 10 uM at -80 mV holding potential by whole cell patch clamp assay relative to untreated control. It is filed as cell-based. For orientation: Patch clamp records ionic current or voltage across a cell membrane.

The next experiment is filed under the species Homo sapiens. Nature of the experiment: Activation of K2P2.1 triple Glycine mutant (unknown origin) expressed in Xenopus oocytes assessed as effect on channel currents at 50 uM by two-electrode voltage clamp assay. It is filed as cell-based.
In experiment [7] the target is T1, Potassium channel subfamily K member 2 (Homo sapiens). Nature of the experiment: Activation of K2P2.1 (unknown origin) expressed in HEK293T cells outside out excised patches assessed as effect on channel currents at 20 uM at -40 mV holding potential by […] patch clamp assay relative to untreated control. It is filed as cell-based.
For experiment [8] the target is unchanged. Description: Reversible activation of K2P2.1 (unknown origin) expressed in HEK293T cells assessed as effect on channel currents at 5 to 20 uM by […] assay. It is filed as cell-based.
Experiment [9] shares this target. Description: Reversible activation of K2P2.1 (unknown origin) expressed in Xenopus oocytes assessed as effect on channel currents at 50 uM at -80 mV holding potential by two-electrode voltage clamp assay. It is filed as cell-based.
Experiment [10] has the same target. Nature of the experiment: Activation of K2P2.1 (unknown origin) expressed in HEK293T cells inside out excised patches assessed as effect on channel currents at 20 uM at -40 mV holding potential by patch clamp assay relative to untreated control. It is filed as cell-based.
For experiment [11], the system named is Potassium channel subfamily K member 2 (Homo sapiens), O95069 [UNDEFINED MUTATION]. Nature of the experiment: Activation of K2P2.1 W275S mutant (unknown origin) expressed in Xenopus oocytes assessed as effect on channel currents at 50 uM by two-electrode voltage clamp assay. It is filed as cell-based.
Experiment [12] addresses T1, Potassium channel subfamily K member 2 (Homo sapiens). Description: Activation of K2P2.1 (unknown origin) expressed in Xenopus oocytes assessed as effect on channel currents at 50 uM in presence of 90 mM [K+]o-induced extracellular C-type gate stabilization by two-electrode voltage clamp assay. It is filed as cell-based.
Experiment [13] has as its target T2, Potassium channel subfamily K member 4 (Homo sapiens) (UniProt Q9NYG8).
T2 sequence (whole entry): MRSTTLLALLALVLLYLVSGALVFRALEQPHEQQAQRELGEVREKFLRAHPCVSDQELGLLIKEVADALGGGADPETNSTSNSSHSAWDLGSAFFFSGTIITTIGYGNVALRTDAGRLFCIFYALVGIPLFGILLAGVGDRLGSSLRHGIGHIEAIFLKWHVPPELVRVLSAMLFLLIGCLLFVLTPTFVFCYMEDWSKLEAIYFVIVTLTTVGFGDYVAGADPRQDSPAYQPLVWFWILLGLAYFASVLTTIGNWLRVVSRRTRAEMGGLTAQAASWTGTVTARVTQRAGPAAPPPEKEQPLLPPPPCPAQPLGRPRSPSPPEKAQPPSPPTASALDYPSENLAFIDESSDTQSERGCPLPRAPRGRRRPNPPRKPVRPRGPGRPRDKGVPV
Description: Binding affinity to K2P4.1 (unknown origin) assessed as induction of protein cross linking and labelling at 1 to 200 uM following 254 nm UV light irradiation for 30 secs by SDS-PAGE analysis.

For experiment [14], the target named is T1, Potassium channel subfamily K member 2 (Homo sapiens). Nature of the experiment: Inhibition of K2P2.1 (unknown origin) expressed in Xenopus oocytes assessed as effect on channel currents at 100 to 500 uM at 40 mV holding potential by two-electrode voltage clamp assay. It is filed as cell-based.

Sequence of Potassium voltage-gated channel subfamily KQT member 2 (Homo sapiens) (O43526 whole entry): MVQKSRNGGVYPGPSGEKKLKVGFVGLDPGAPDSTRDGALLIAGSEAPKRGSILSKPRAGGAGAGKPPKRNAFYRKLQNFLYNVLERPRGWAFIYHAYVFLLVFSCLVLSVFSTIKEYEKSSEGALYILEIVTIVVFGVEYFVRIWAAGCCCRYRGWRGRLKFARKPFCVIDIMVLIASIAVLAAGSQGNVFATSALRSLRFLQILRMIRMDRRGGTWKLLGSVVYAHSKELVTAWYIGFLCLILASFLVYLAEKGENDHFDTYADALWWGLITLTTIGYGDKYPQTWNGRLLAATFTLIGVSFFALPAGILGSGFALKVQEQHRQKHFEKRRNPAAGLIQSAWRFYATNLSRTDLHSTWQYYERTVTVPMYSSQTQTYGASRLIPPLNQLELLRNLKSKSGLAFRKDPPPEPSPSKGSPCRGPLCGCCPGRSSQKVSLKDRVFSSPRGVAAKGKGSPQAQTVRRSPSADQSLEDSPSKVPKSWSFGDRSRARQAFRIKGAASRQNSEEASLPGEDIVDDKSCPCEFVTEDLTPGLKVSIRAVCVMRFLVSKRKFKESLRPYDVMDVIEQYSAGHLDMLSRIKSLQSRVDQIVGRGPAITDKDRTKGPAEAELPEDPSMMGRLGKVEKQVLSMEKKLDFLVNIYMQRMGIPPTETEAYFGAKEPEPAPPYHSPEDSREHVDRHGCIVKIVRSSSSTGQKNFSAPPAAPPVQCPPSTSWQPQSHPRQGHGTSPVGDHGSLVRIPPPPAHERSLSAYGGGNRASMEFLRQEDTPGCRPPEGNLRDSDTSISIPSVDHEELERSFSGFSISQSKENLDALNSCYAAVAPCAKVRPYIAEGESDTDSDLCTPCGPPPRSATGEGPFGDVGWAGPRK

For `O=C1S/C(=C/c2ccc(F)cc2)C(=O)N1CN1CCCCC1`, the result in experiment [1] was Active.
As for `Cc1cccc(-n2ncc3c(NCCc4ccccc4)ncnc32)c1`, the result in experiment [2] was Active.
Consider `O=C(O)CCn1c2ccc(Cl)cc2c2cc(Cl)ccc21`, for which the outcome in experiment [3] was inactive. In addition, the outcome in experiment [2] and in [1] was Active. Besides, the Emax in experiment [4] came out at 11.
As for `CC1(C)c2cc(Cl)ccc2N(CCc2nnn[nH]2)c2ccc(Cl)cc21`, the outcome (in experiment [5]; in the experiment listed under Homo sapiens; in experiment [11]; in experiment [12]) was inactive. The outcome in experiment [6], in [7], in experiment [8], in [9] and in experiment [10] was Active.
For `C#Cc1ccc(S(=O)(=O)NC(=O)CCN2c3ccc(N=[N+]=[N-])cc3C3(CCCCC3)c3cc(N=[N+]=[N-])ccc32)cc1`, the outcome in experiment [13] was Active.
For the molecule `Cc1sc(-n2cccc2)c(C(=O)NCc2ccc(Cl)cc2)c1C`, the inhibition entry in [14] was “Active”.
For `O=C(O)COc1ccc(C23CC4CC(CC(C4)C2)C3)cc1`, in experiment [1], the result was Active.
